Where two headings read alike, the source gives them in different places.
Molecular target: T1, CYP4A (Homo sapiens, UniProt Q02928)
T1 construct: purchased; host or cells: bacterial membranes ('bactosome')
T1 sequence (Q02928 5-519): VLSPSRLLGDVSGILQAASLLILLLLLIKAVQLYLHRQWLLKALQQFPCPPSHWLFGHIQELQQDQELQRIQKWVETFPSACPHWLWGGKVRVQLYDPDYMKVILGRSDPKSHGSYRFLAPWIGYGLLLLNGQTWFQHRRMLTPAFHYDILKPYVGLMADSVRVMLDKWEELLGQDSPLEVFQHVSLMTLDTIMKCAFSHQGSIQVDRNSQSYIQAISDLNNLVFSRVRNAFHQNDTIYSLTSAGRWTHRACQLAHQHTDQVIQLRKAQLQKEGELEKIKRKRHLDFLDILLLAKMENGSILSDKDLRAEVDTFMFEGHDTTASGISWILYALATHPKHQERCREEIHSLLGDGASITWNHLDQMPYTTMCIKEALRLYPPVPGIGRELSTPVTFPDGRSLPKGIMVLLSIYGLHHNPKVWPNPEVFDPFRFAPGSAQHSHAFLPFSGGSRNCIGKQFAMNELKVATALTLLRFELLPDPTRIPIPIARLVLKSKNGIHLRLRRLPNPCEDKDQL
Test: CYP4A enzyme assay (luminescence, Luciferin-ME)
Assay type: biochemical
Conditions: Compound concentration 5 μM
Method: The CYP4A inhibitory activity of the above compounds of the examples was measured. The reagents used in the experiment were commercially available, and were prepared and used when necessary. The device used for measuring activity was SpectraMax of MOLECULAR DEVICES.
CYP4A bactosome and the compounds to be evaluated (5 μM) were each diluted in assay buffer (100 mM KPO4, 0.1% BSA, 1 mM DTT) and mixed in a 384 well plate (white opaque polystyrene nontreated flat-bottom well), and reaction was carried out at room temperature for 15 minutes. To induce CYP4A reaction, 5 mM Luciferin-ME, NADPH Regeneration system (10× sol. A, 20× sol. B in assay buffer, Cat. Number: V865B, Promega) were sequentially added and mixed, and the reaction was carried out at room temperature for 30 minutes. Then, Luciferin Detection reagent was added thereto and reacted at room temperature for 15 minutes to stop the CYP4A reaction and induce a luminescence reaction. Finally, after measuring the luminescence value using a microplate reader, the inhibition of CYP4A activity by the compounds was evaluated by comparing the luminescence value from each well.

[1] = 70%-90%, read-out: % Inhibition 70%-90%
[2] = 50%-70%, read-out: % Inhibition 50%-70%
[3] = Greater than 90%, read-out: % Inhibition Greater than 90%

SMILES	inhibition at 5 µM [1]	inhibition at 5 µM [3]	further results
O=C(C1CCN(S(=O)(=O)c2ccc(C(F)(F)F)cn2)C1)N1CCN(c2ccnc3ccccc23)CC1 (centres unmarked) [Example 41, (4-(quinolin-4-yl)piperazin-1-yl)(1-((5-(trifluoromethyl)pyridin-2-yl)sulfonyl)pyrrolidin-3-yl)methanone]	70 to 90%		
Cn1cnnc1CN1CC[C@H](C(=O)N2CCN(c3ccnc4cc(F)ccc34)CC2)C1 [Example 154, (S)-(4-(7-fluoroquinolin-4-yl)piperazin-1-yl)(1-((4-methyl-4H-1,2,4-triazol-3-yl)methyl)pyrrolidin-3-yl)methanone]			inhibition at 5 µM [2]: 50 to 70%
COc1ccc2c(N3CCN(C(=O)C4CCCN(C(=O)c5ccncc5)C4)CC3)ccnc2c1 (centres unmarked) [Example 93, (4-(7-methoxyquinolin-4-yl)piperazin-1-yl)(1-(pyridine-4-ylcarbonyl)piperidin-3-yl)methanone]	70 to 90%		
Cc1nn(C)c(C)c1S(=O)(=O)N1CCC(C(=O)N2CCN(c3ccnc4cc(F)ccc34)CC2)C1 (centres unmarked) [Example 12, (4-(7-fluoroquinolin-4-yl)piperazin-1-yl)(1-((1,3,5-trimethyl-1H-pyrazol-4-yl)sulfonyl)pyrrolidin-3-yl)methanone]		> 90%	
O=C(C1CN(S(=O)(=O)c2ccc(Br)cc2)C1)N1CCN(c2ccnc3cc(F)ccc23)CC1 [Example 68, (1-((4-bromophenyl)sulfonyl)azetidin-3-yl)(4-(7-fluoroquinolin-4-yl)piperazin-1-yl)methanone]			inhibition at 5 µM [2]: 50 to 70%
Cc1cc(N2CCN(C(=O)C3CCCN(C(=O)C4CCCCC4)C3)CC2)c2ccccc2n1 (centres unmarked) [Example 103, (1-(cyclohexylcarbonyl)piperidin-3-yl)(4-(2-methylquinolin-4-yl)piperazin-1-yl)methanone]			inhibition at 5 µM (Less than 50%, read-out: % Inhibition Less than 50%): < 50%
O=C(C1CCN(S(=O)(=O)c2ncc[nH]2)C1)N1CCN(c2ccnc3cc(F)ccc23)CC1 (centres unmarked) [Example 13, (1-((1H-imidazol-2-yl)sulfonyl)pyrrolidin-3-yl)(4-(7-fluoroquinolin-4-yl)piperazin-1-yl)methanone]		> 90%	
Cn1cc(S(=O)(=O)N2CCC(C(=O)N3CCN(c4ccnc5ccccc45)CC3)C2)cn1 (centres unmarked) [Example 44, (1-((1-methyl-1H-pyrazol-4-yl)sulfonyl)pyrrolidin-3-yl)(4-(quinolin-4-yl)piperazin-1-yl)methanone]		> 90%	
Cc1ccc2c(N3CCN(C(=O)[C@H]4CCN(S(=O)(=O)c5ncn[nH]5)C4)CC3)ccnc2c1 [Example 163, (S)-(1-((1H-1,2,4-triazol-5-yl)sulfonyl)pyrrolidin-3-yl)(4-(7-methylquinolin-4-yl)piperazin-1-yl)methanone]	70 to 90%		
O=C(C1CCN(S(=O)(=O)c2ccc([N+](=O)[O-])cc2)C1)N1CCN(c2ccnc3cc(F)ccc23)CC1 (centres unmarked) [Example 8, (4-(7-fluoroquinolin-4-yl)piperazin-1-yl)(1-((4-nitrophenyl)sulfonyl)pyrrolidin-3-yl)methanone]		> 90%	
Cc1nn(C)c(C)c1S(=O)(=O)N1CCC(C(=O)N2CCN(c3ccnc4ccccc34)CC2)C1 (centres unmarked) [Example 38, (4-(quinolin-4-yl)piperazin-1-yl)(1-((1,3,5-trimethyl-1H-pyrazol-4-yl)sulfonyl)pyrrolidin-3-yl)methanone]		> 90%	
CC(=O)Nc1ccc(C(=O)N2CCCC(C(=O)N3CCN(c4ccnc5cc(F)ccc45)CC3)C2)cc1 (centres unmarked) [Example 105, N-(4-(3-(4-(7-fluoroquinolin-4-yl)piperazine-1-carbonyl)piperidine-1-carbonyl)phenyl)acetamide]	70 to 90%		
COCCn1ccnc1S(=O)(=O)N1CC[C@H](C(=O)N2CCN(c3ccnc4cc(F)ccc34)CC2)C1 [Example 149, (S)-(4-(7-fluoroquinolin-4-yl)piperazin-1-yl)(1-((1-(2-methoxyethyl)-1H-imidazol-2-yl)sulfonyl)pyrrolidin-3-yl)methanone]		> 90%	
O=C(C1CCN(S(=O)(=O)c2ccc(-c3ccc(O)nc3)cc2)C1)N1CCN(c2ccnc3ccccc23)CC1 (centres unmarked) [Example 34, (1-((4-(6-hydroxypyridin-3-yl)phenyl)sulfonyl)pyrrolidin-3-yl)(4-(quinolin-4-yl)piperazin-1-yl)methanone]		> 90%	
CC(=O)Nc1nc(C)c(S(=O)(=O)N2CCC(C(=O)N3CCN(c4ccnc5ccccc45)CC3)C2)s1 (centres unmarked) [Example 47, N-(4-methyl-5-((3-(4-(quinolin-4-yl)piperazine-1-carbonyl)pyrrolidin-1-yl)sulfonyl)thiazol-2-yl)acetamide]		> 90%	
Cc1ccc(S(=O)(=O)N2CCC(C(=O)N3CCN(c4ccnc5ccccc45)CC3)C2)s1 (centres unmarked) [Example 37, (1-((5-methylthiophen-2-yl)sulfonyl)pyrrolidin-3-yl)(4-(quinolin-4-yl)piperazin-1-yl)methanone]	70 to 90%		
CC(=O)Nc1ccc(C(=O)N2CCCC(C(=O)N3CCN(c4ccnc5cc(Cl)ccc45)CC3)C2)cc1 (centres unmarked) [Example 83, N-(4-(3-(1-(7-chloroquinolin-4-yl)piperazine-4-carbonyl)piperidine-1-carbonyl)phenyl)acetamide]		> 90%	
O=C(C1CCN(S(=O)(=O)c2ccc(N3CCOCC3)cc2)C1)N1CCN(c2ccnc3ccccc23)CC1 (centres unmarked) [Example 35, (1-((4-morpholinophenyl)sulfonyl)pyrrolidin-3-yl)(4-(quinolin-4-yl)piperazin-1-yl)methanone]		> 90%	
O=C(C1CCCN(S(=O)(=O)C2CC2)C1)N1CCN(c2ccnc3ccccc23)CC1 (centres unmarked) [Example 122, (1-(cyclopropylsulfonyl)piperidin-3-yl)(4-(quinolin-4-yl)piperazin-1-yl)methanone]			inhibition at 5 µM [2]: 50 to 70%
O=C(C1CCCN(C(=O)C2CCCCC2)C1)N1CCN(c2ccnc3cc(Cl)ccc23)CC1 (centres unmarked) [Example 86, (4-(7-chloroquinolin-4-yl)piperazin-1-yl)(1-(cyclohexylcarbonyl)piperidin-3-yl)methanone]			inhibition at 5 µM [2]: 50 to 70%
O=C(C1CCN(S(=O)(=O)c2ncn[nH]2)C1)N1CCN(c2ccnc3cc(F)ccc23)CC1 (centres unmarked) [Example 10, (1-((1H-1,2,4-triazol-5-yl)sulfonyl)pyrrolidin-3-yl)(4-(7-fluoroquinolin-4-yl)piperazin-1-yl)methanone]		> 90%	
O=C([C@H]1CCN(S(=O)(=O)c2ncn[nH]2)C1)N1CCN(c2cc(C(F)(F)F)nc3ccccc23)CC1 [Example 167, (S)-(1-((1H-1,2,4-triazol-5-yl)sulfonyl)pyrrolidin-3-yl)(4-(2-(trifluoromethyl)quinolin-4-yl)piperazin-1-yl)methanone]	70 to 90%		
O=C([C@@H]1CCN(S(=O)(=O)c2ncn[nH]2)C1)N1CCN(c2ccnc3cc(F)ccc23)CC1 [Example 134, (R)-(1-((1H-1,2,4-triazol-5-yl)sulfonyl)pyrrolidin-3-yl)(4-(7-fluoroquinolin-4-yl)piperazin-1-yl)methanone]		> 90%	
O=C(C1CN(S(=O)(=O)c2ccc(O)cc2)C1)N1CCN(c2ccnc3cc(F)ccc23)CC1 [Example 66, (4-(7-fluoroquinolin-4-yl)piperazin-1-yl)(1-((4-hydroxyphenyl)sulfonyl)azetidin-3-yl)methanone]		> 90%	
COc1ccc(C(=O)N2CCCC(C(=O)N3CCN(c4ccnc5cc(F)ccc45)CC3)C2)cc1 (centres unmarked) [Example 110, (4-(7-fluoroquinolin-4-yl)piperazin-1-yl)(1-(4-methoxybenzoyl)piperidin-3-yl)methanone]	70 to 90%		
O=C(c1ccncc1)N1CCCC(C(=O)N2CCN(c3ccnc4cc(F)ccc34)CC2)C1 (centres unmarked) [Example 109, (4-(7-fluoroquinolin-4-yl)piperazin-1-yl)(1-isonicotinoylpiperidin-3-yl)methanone]	70 to 90%		
O=C(c1ccccc1)N1CCCC(C(=O)N2CCN(c3ccnc4cc(F)ccc34)CC2)C1 (centres unmarked) [Example 107, (1-benzoylpiperidin-3-yl)(4-(7-fluoroquinolin-4-yl)piperazin-1-yl)methanone]	70 to 90%		
Cc1nn(C)c(C)c1S(=O)(=O)N1CC[C@@H](C(=O)N2CCN(c3ccnc4ccccc34)CC2)C1 [Example 152, (R)-(4-(quinolin-4-yl)piperazin-1-yl)(1-((1,3,5-trimethyl-1H-pyrazol-4-yl)sulfonyl)pyrrolidin-3-yl)methanone]	70 to 90%		
COc1ccc(C(=O)N2CCCC(C(=O)N3CCN(c4ccnc5ccccc45)CC3)C2)cc1 (centres unmarked) [Example 116, (1-(4-methoxyphenylcarbonyl)piperidin-3-yl)(4-(quinolin-4-yl)piperazin-1-yl)methanone]	70 to 90%		
